Format in all cases: in vitro ADME
Data set [1] can be described thus: Enzyme kinetics of GL-V9 glucuronidation in beagle dog liver microsomes (DLMs). Particulars: beagle, dog, liver microsomes, pH 7.4, formation of 5-O-glucuronide GL-V9, protein 0.1 mg/mL, mean ± SD, n = 3. The protocol:
(§1) The composition of the incubation system (200 μL) contained liver microsomes of different species (0.1 mg protein/mL), 5 mM saccharolactone (D-saccharic acid 1,4-lactone monohydrate), 10 mM MgCl2, alamethicin (50 μg/mg protein), Tris-HCl buffer (50 mM, pH 7.4) and GL-V9 (1 μM). After 5 min of preincubation at 37 °C, UDPGA (5 mM) was added to initiate the phase II reaction. Control incubation samples were performed without UDPGA or without substrates (GL-V9). The reaction was terminated by addition of ice-cold methanol (three volumes) after incubation for 1 h at 37 °C. Samples were vortexed, centrifuged at 21,500× g for 10 min and then stored at 4 °C until HPLC-UV-TripleTOF analysis. To confirm that these metabolites are conjugates resulting from glucuronidation reaction, enzymatic hydrolysis of samples was processed. β-glucuronidase (100 KU, Sigma) was added and the hydrolysis was performed overnight at 37 °C. The control samples were carried out without β-glucuronidase under the same condition.
(§2) Enzyme kinetics experiments were carried out in triplicate among five different species, including monkey, beagle dog, rat, mouse, and human. The reaction system and operations are as same as described in Section 4.3. The solutions of GL-V9 were selected over a range of concentrations (0.05, 0.2, 0.5, 1, 2, 5, 10, 20 μM). […]
In general terms: Microsomes from liver hold many membrane-bound enzymes, among them those of drug oxidation.

Data set [2] deals with beagle dog liver microsomes (DLMs). The data set is described as above. The settings on record: formation of 5-O-glucuronide GL-V9, protein 0.1 mg/mL, mean ± SD, n = 3. The protocol:
as §1, §2

For the next data set, the target named is T1, rUGT1A4 (Homo sapiens, UniProt P22310).
T1 construct: purchased Corning (Woburn, MA, USA)
T1 sequence (P22310 29-534): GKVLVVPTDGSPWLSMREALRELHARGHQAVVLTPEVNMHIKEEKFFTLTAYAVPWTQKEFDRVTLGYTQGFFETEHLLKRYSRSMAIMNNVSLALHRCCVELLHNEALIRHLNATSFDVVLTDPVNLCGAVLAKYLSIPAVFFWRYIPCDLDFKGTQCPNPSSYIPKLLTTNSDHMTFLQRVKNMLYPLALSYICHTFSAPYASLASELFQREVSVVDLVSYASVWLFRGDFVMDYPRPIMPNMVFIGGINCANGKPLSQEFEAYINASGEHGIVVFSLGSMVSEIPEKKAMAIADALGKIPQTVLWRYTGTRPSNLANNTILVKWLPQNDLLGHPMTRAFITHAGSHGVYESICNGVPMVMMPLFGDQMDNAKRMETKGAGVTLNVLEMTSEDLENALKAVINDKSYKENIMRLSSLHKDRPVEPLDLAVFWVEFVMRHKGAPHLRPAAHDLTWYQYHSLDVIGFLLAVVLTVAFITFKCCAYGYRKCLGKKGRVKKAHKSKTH
Description: UGT phenotyping of GL-V9 glucuronidation, rUGT1A4. Particulars: GL-V9 0.5, 1, 5 μM, 37 °C, 1 h. The protocol: as §1
Twelve human recombinant UGT isoforms (rUGT1A1, rUGT1A3, rUGT1A4, rUGT1A6, rUGT1A7, rUGT1A8, rUGT1A9, rUGT1A10, rUGT2B4, rUGT2B7, rUGT2B15, and rUGT2B17) were employed to identify the main UGT enzyme(s) responsible for glucuronidation of GL-V9 under mixture conditions as described in Section 4.3. […]

The term Km denotes the substrate concentration at which the rate is half of its maximum. The term Vmax denotes the rate approached at saturating substrate. As to `COc1c(OCCCCN2CCCC2)cc(O)c2c(=O)cc(-c3ccccc3)oc12` [GL-V9], the Km at 1 h in data set [1] stood at 12.5 ± 1.43 µM. The Vmax in data set [2] was 22.03 ± 0.42 pmol/min/mg. Moreover, the “Metabolism rate (glucuronidation)” value on rUGT1A4 was “too low to be biologically relevant”.

The record behind these values is publication PMC6515479, “An Investigation on Glucuronidation Metabolite Identification, Isozyme Contribution, and Species Differences of GL-V9 In Vitro and In Vivo” (Molecules, 2019).
